Activity calls are given as the source filed them. Rule as the data show it, for most assays here: actives have a measured IC50 and inactives only a lower limit.
Assays:
Format in all cases: functional
[1] = target: T1, Protein RecA (Mycobacterium tuberculosis, UniProt P9WHJ3); test: Fluorescence Cell-Free Homogeneous Dose Retest to Identify Inhibitors of RecA-Intein Splicing Activity. [Related pubchem assays (depositor defined):AID2097, AID2223, AID489010, AID492950]
T1 sequence (P9WHJ3 whole entry): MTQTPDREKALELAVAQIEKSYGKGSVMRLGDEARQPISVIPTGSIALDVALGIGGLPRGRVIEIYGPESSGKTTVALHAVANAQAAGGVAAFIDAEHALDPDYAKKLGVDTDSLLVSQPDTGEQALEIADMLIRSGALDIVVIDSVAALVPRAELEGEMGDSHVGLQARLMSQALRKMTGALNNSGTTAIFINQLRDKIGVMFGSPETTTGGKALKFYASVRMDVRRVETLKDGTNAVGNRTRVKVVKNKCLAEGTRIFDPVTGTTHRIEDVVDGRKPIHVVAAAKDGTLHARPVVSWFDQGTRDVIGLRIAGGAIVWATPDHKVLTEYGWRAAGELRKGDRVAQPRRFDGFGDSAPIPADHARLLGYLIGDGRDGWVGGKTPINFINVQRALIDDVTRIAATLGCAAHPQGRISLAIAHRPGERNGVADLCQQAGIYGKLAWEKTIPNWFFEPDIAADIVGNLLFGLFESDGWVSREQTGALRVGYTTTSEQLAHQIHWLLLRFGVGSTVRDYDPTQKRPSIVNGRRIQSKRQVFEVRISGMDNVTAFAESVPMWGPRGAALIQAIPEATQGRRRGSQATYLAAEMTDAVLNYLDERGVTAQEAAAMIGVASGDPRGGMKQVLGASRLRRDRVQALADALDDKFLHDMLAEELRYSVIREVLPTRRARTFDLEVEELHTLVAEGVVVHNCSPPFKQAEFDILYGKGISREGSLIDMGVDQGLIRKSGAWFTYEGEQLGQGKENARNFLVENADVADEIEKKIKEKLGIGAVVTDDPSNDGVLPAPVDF

[2] = target: T2, Caspase-3 (Homo sapiens, UniProt P42574);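 also: Dose-response selectivity test against caspase-3 for candidate inhibitors of sentrin-specific proteases (SENPs)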
T2 sequence (P42574 whole entry): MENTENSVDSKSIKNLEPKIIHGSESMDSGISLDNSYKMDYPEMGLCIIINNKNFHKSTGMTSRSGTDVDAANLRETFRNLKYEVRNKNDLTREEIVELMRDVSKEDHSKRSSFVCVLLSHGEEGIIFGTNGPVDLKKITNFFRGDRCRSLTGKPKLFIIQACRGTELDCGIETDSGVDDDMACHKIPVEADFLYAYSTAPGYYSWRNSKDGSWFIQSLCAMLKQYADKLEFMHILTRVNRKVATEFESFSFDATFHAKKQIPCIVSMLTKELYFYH

[3] = target: T3, Sentrin-specific protease 7 (Homo sapiens, UniProt Q9BQF6);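 also: Luminescence-based dose-response confirmation of ultra-high-throughput screening hits, measuring inhibition of SENP7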
T3 sequence (Q9BQF6 whole entry): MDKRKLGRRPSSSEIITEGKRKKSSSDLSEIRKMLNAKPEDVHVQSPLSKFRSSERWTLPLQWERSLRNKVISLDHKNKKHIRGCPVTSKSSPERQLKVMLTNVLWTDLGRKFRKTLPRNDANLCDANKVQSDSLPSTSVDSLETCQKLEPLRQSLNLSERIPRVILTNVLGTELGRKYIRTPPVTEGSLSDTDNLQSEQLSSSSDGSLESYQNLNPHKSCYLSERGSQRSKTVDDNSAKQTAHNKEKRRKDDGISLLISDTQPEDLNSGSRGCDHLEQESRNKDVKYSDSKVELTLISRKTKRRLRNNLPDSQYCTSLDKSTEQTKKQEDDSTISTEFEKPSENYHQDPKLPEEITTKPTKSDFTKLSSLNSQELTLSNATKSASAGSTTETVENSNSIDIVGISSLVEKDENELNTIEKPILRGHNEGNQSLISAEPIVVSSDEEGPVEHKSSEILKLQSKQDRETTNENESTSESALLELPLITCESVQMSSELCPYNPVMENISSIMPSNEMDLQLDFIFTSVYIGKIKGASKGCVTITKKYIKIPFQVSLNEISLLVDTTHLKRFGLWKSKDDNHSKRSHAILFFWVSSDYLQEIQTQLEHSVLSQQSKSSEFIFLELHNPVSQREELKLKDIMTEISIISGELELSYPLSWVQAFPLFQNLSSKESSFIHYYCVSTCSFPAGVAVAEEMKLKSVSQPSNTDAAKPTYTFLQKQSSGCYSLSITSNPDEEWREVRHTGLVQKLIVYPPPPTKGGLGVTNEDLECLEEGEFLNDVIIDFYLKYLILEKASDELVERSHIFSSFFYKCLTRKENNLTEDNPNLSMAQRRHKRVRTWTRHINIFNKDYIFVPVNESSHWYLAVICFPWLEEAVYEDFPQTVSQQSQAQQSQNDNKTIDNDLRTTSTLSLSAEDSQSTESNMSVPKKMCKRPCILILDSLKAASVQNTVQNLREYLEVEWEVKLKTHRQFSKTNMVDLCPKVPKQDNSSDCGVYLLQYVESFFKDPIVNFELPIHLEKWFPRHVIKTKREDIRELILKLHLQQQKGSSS

SMILES	EC50 [1]	IC50 [2]	IC50 [3]
C=CCNC1=C(Cl)C(=O)c2ccccc2C1=O	10.4 µM (active)	3.62 µM (active)	23.9 µM (active)
CCOC(=O)C(C(=O)OCC)c1cc(Br)c2noc3c2c1C(=O)c1ccccc1-3	0.393 µM (active)	–	–
CN(C)c1ccc(-c2nnc(-c3cccs3)o2)cc1	–	22.3 µM (active)	12.9 µM (active)

Reference: ChEMBL document CHEMBL1201862, “PubChem BioAssay data set” (2004)
